According to patent US10583206B2, “Radioactive probe for detecting hydrogen sulfide” (KYUNGPOOK NATIONAL UNIVERSITY INDUSTRY-ACADEMIC COOPERATION …, priority 2015, dated 2020):
Read-outs that look alike come from different tables or passages of the source.

Tests used:
[1] = Hydrogen sulfide selectivity test: decomplexation by NaNO2; type: physicochemical; conditions: NaNO2 (100 µM); 37° C. for 15 minutes
[2] = Hydrogen sulfide selectivity test: decomplexation by NaClO4; type: physicochemical; conditions: NaClO4 (100 μM); 37° C. for 15 minutes
Procedure, shortened: (§1)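 About 45 μCi-55 μCi of ^64Cu-labeled complex in water was mixed with an equal volume of competitor solution (Na2S2O5 1 mM, H2O2 […], NaClO4 100 μM, 2-ME 10 mM) and stirred 15 min at 37° C. ^64CuS formation was quantified by radio-TLC scanning.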

[3] = Hydrogen sulfide selectivity test: decomplexation by DAT (diallyl trisulphide); type: physicochemical; conditions: DAT = diallyl trisulphide (100 μM); 37° C. for 15 minutes
[4] = Hydrogen sulfide selectivity test: decomplexation by H2O2; type: physicochemical; conditions: H2O2 (100 µM); 37° C. for 15 minutes
Procedure, shortened: as §1

[5] = Hydrogen sulfide selectivity test: decomplexation by ME; type: physicochemical; conditions: 2-mercaptoethanol; 100 μM or (2-ME, 10 mM); 37° C. for 15 minutes
Procedure, shortened: as §1

[6] = Hydrogen sulfide selectivity test: decomplexation by NaCl; type: physicochemical; conditions: 100 μM or NaCl (10 mm), 37° C. for 15 minutes
[7] = Hydrogen sulfide selectivity test: decomplexation by L-AsA; type: physicochemical; conditions: L-ascorbic acid; 100 μM or (L-AsA, 10 mM); 37° C. for 15 minutes
[8] = Hydrogen sulfide selectivity test: decomplexation by DTT; type: physicochemical; conditions: DL-dithiothretitol (DTT, 100 μM); 37° C. for 15 minutes
[9] = Hydrogen sulfide selectivity test: decomplexation by Kl; type: physicochemical; conditions: 100 μM or KI (1 mM), 37° C. for 15 minutes
[10] = test system: Myocardial infarction model; test: Imaging study in myocardial infarction model (PET); type: in vivo, Sprague-Dawley rats
Source text: (2) Myocardial Infarction Model
A myocardial infarction model was established by using Sprague-Dawley rats (12-week-old or older, about 250 g). 2 days later after induction of myocardial infarction by occlusion of the coronary arteries in the heart, the rats were used in imaging tests. It is a known fact that myocardial infarction sites show high concentrations of hydrogen sulfide.
It is known that myocardial infarction sites show high concentrations of hydrogen sulfide. Thus, after induction of myocardial infarction by coronary artery occlusion in rats, 50 μCi-900 μCi of the ^64Cu-labeled complex compound was injected via the tails of the rats, and uptake in the myocardial infarction site was examined over time by PET imaging.
36 hours after establishment of the myocardial infarction model, 730 μCi of the radioisotope-labeled complex compound of the present disclosure was injected and nuclear medicine imaging was performed. 2 days later, […] of FDG was injected into the same rat, and then FDG-PET images were obtained. Results are shown in FIGS. 15 to 17 (in the nuclear medicine imaging, the upper image represents a transverse image, and the lower image represents a coronal image).

[11] = Test of hydrogen sulfide detection sensitivity (% decomplexation with NaHS, radio-TLC); type: physicochemical; conditions: for % decomplexation: 37° C. for 15 minutes
Procedure, shortened: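 ^64Cu-labelled complex (about 45 μCi-55 μCi) mixed with NaHS at various concentrations in triple distilled water, 500 μL total, stirred 15 min at 37° C. Copper sulfide (^64CuS) formation quantified as % decomplexation by radio-TLC scanner.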

Paw inflammation model = type: in vivo, Balb/c or ICR mice
Procedure, shortened: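 CFA or formalin injected into right hind paw of Balb/c or ICR mice; used 1 day later. PET/CT, optical and Cherenkov (^64Cu, CCD) imaging, 1–5 min acquisitions, dose about 50–2000 μCi, imaged immediately and at 1, 4 and 24 hours post-injection.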

[12] = Hydrogen sulfide selectivity test: decomplexation by ATB 337; type: physicochemical; conditions: ATB 337 (100 μM); 37° C. for 15 minutes
[13] = Hydrogen sulfide selectivity test: decomplexation by Na2S2O5; type: physicochemical; conditions: 100 μM or (1 mM), 37° C. for 15 minutes
Procedure, shortened: as §1

[14] = Hydrogen sulfide selectivity test: decomplexation by Hcys; type: physicochemical; conditions: 100 μM or L-Hcys (10 mM), 37° C. for 15 minutes
[15] = Hydrogen sulfide selectivity test: decomplexation by NaN3; type: physicochemical; conditions: NaN3 (100 μM); 37° C. for 15 minutes
[16] = Hydrogen sulfide selectivity test: decomplexation by NaOAc; type: physicochemical; conditions: 100 μM or (1 mM), 37° C. for 15 minutes

SMILES | Decomplexation [%] [1] [%] | Decomplexation [%] [2] [%] | Decomplexation [%] [3] [%] | Decomplexation [%] [4] [%] | Decomplexation [%] [5] [%] | Decomplexation [%] [6] [%] | Decomplexation [%] [7] [%] | Decomplexation [%] [8] [%] | Decomplexation [%] [9] [%] | % decomplexation ([11]; NaHS 0 μM) [%] | % decomplexation ([11]; NaHS 1 μM) [%] | % decomplexation ([11]; NaHS 10 μM) [%] | % decomplexation ([11]; NaHS 15 μM) [%] | % decomplexation ([11]; NaHS 20 μM) [%] | % decomplexation ([11]; NaHS 50 μM) [%] | % decomplexation ([11]; NaHS 100 μM) [%] | Decomplexation [%] [12] [%] | Decomplexation [%] [13] [%] | Decomplexation [%] [14] [%] | Decomplexation [%] [15] [%] | also measured
C1C[N]2CC[N]3CC[N]4CC[N]1[64Cu]243 [Example 1, ^64Cu-labeled cyclen] | 0.6 ± 0.0 | 0.6 ± 0.2 | 0.4 ± 0.3 | 0.5 ± 0.4 | 0.5 ± 0.1 | 0.2 ± 0.0 | 0.5 ± 0.1 | 0.6 ± 0.4 | 0.7 ± 0.2 | 0 | 3 | 11 | 63 | 95 | 100 | 100 | 0.7 ± 0.4 | 0.5 ± 0.2 | 1.4 ± 0.4 | 0.3 ± 0.2 | uptake in the myocardial infarction site ([10]; image taken at 24 hours after injection): high uptake was detected in the myocardial infarction site; sensitivity for hydrogen sulfide (lowest detectable concentration), in words ([11]; comparison among tested complexes): most excellent sensitivity for hydrogen sulfide; retention time in the animal models (Paw inflammation model; ICR and Balb/c, mouse, in vivo): ≥ 24 h; uptake in inflamed paw versus opposite paw (Paw inflammation model; PET imaging): higher uptake in the inflamed right paw than in the opposite paw; uptake in the CFA-induced inflamed site (Paw inflammation model; optical imaging): increased uptake; Decomplexation [%] [16]: 0.6 ± 0.1%
C1C[N]2CC[N]3CC[N]1[64Cu]23 [Example 20, ^64Cu-labeled TACN] | 0.4 ± 0.0 | 0.4 ± 0.1 | 0.7 ± 0.6 | 0.8 ± 0.3 | 0.4 ± 0.0 | 0.5 ± 0.0 | 0.8 ± 0.5 | 0.9 ± 0.1 | 0.4 ± 0.2 | 0 | 0 | 9 | 11 | 13.5 | 24.6 | 54.4 | 0.7 ± 0.2 | 0.5 ± 0.2 | 1.1 ± 0.5 | 0.4 ± 0.0 | uptake / visualisation of the myocardial infarction site ([10]; PET imaging after injection): the myocardial infarction site was clearly observed; detection of the inflamed site immediately after injection (Paw inflammation model; imaging immediately after injection): detected in imaging immediately after injection; uptake in inflamed paw versus opposite paw (Paw inflammation model; imaging performed after 1 hour, also PET imaging): higher uptake; Decomplexation [%] [16]: 0.3 ± 0.0%
